Test results reported in PubChem BioAssay AID651798 (Broad Institute, 2012).
Calls of active or inactive are those of the source.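 How the source made its calls: active means fitted AC50 at or below twice the top valid dose, with signal falling as dose rises; inconclusive means flat fit between -30 and -70%, or poor fit; inactive means the rest, including rising effects.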

Target: Kelch-like ECH-associated protein 1 (Homo sapiens) (UniProt Q14145)
Test: disruptors of Keap1 Kelch-Nrf2 peptide binding – biochemical, fluorescence polarization, dry powder samples, dose response (AID 651798)
Details: Keap1 Kelch/FITC-Nrf2 peptide fluorescence polarization

Sequence of Kelch-like ECH-associated protein 1 (Homo sapiens) (Q14145 whole entry, looked up): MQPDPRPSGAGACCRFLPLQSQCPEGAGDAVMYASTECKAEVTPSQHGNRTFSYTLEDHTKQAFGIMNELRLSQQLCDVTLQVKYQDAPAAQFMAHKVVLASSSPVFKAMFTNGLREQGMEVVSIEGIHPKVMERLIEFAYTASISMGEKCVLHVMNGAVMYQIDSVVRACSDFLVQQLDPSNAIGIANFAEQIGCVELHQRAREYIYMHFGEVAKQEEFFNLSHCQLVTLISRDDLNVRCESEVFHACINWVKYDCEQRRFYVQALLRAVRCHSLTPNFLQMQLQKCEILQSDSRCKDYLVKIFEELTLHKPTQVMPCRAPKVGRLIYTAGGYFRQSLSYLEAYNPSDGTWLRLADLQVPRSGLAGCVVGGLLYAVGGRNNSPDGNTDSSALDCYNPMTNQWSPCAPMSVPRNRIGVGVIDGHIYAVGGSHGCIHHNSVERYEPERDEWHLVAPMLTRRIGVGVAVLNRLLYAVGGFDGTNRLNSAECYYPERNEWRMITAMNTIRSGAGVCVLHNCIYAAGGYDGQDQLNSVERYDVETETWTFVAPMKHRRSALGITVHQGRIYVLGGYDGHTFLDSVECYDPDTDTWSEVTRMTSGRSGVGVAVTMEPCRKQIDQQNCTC

| SMILES | activity change, negative = inhibition (at 50 µM (top of the series)) | other results |
| --- | --- | --- |
| O=C1c2ccccc2C(=O)N1CC1c2ccccc2CCN1C(=O)Cc1ccccc1 (configuration not stated) | – | activity change, negative = inhibition (at 12 µM (top of the series)): inactive |
| Cc1cc(C)c(S(=O)(=O)Nc2cc(C(C(=O)OC(C)C)C(=O)C(F)(F)F)c(O)c3ccccc23)c(C)c1 (configuration not stated) | – | AC50: 0.673 µM |
| O=C(O)/C=C\C(=O)N1CCc2ccccc2C1CN1C(=O)c2ccccc2C1=O (configuration not stated) | inactive | – |
| Cc1ccc(S(=O)(=O)NNc2nc(N3CC(O)CC3C(=O)O)nc3ccccc23)cc1 (configuration not stated) | inactive | – |
| COC(=O)C(C(=O)OC)c1cc(NS(=O)(=O)c2c(C)cc(C)cc2C)c2ccccc2c1O | – | AC50: 34.2 µM |
| NC(=O)[C@H]1CCCC[C@H]1C(=O)N1CCc2ccccc2[C@H]1CN1C(=O)c2ccccc2C1=O | inactive | – |
| Cc1cc(C)c(S(=O)(=O)Nc2nc(N(C)C)nc3ccccc23)c(C)c1 | inactive | – |
